Legend:
[1] = molecular target: T1, DNA-PK phosphorylation at Serine 2056 (Homo sapiens, UniProt P78527); assay: Cellular Assay for Inhibition of DNA-PK Phosphorylation at Serine 2056 in FaDu cells (sandwich ELISA, neocarzinostatin); type: cell-based; details: pSer2056 DNA-PK, neocarzinostatin 1 μg/mL, Table 1
T1 construct: FaDu cells were purchased from ATCC; host or cells: FaDu
Procedure, shortened: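 FaDu cells pre-treated with compound (0.3% DMSO) for 1 h, then neocarzinostatin 1 μg/mL final added for 2 h to induce DSBs. Protein-normalised lysates read by sandwich ELISA for total and pSer2056 DNA-PK; % inhibition normalised between DMSO and NCS controls, IC50 from variable-slope log(inhibitor) fit.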

[2] = Hepatocyte Stability Assay, mouse hepatocytes; type: in vitro ADME; details: for hepatocyte CLint at 1 uM: male, CD-1, cryopreserved hepatocytes, pH 7.3, mouse hepatocytes 0.7 million cells per mL, 1 uM compound; for Hepatocyte Stability Mouse % rem. 120 min: mouse hepatocytes
Experimental: Cryopreserved mouse hepatocytes were obtained from a pool of 10 or more male CD-1 mice. Cryopreserved human hepatocytes were obtained from a pool of 10 or more donors of mixed gender. Final hepatocyte density was 0.7 million viable cells per mL and test compound concentration was 1 uM with a maximum of 0.01% DMSO. Cryopreserved hepatocytes were thawed, washed, and resuspended in Krebs-Heinslet buffer (pH 7.3). The reaction was initiated by adding the test compound into cell suspension and incubated for 0, […], 1, 1.5, and 2 h, respectively, at 37° C./5% C02. The reaction was stopped by adding acetonitrile into the incubation mixture. Samples were then mixed, transferred completely to another 96-well plate, and centrifuged. Supernatants were used for HPLC-MS/MS analysis. […] Peak areas corresponding to the test compound were recorded.

[3] = Microsomal Stability Assay, mouse liver microsomes; type: in vitro ADME; details: for microsomal CLint at 0.1 uM: male, CD-1, pH 7.4, mouse liver microsomes 0.1 mg/mL, 0.1 uM compound; for Microsomal Stability Mouse % rem. 60 min: mouse liver microsomes
Experimental: (§1) Samples were then mixed and centrifuged. Supernatants were used for HPLC-MS/MS analysis. […] Peak areas corresponding to the test compound were recorded.

[4] = Microsomal Stability Assay, human liver microsomes; type: in vitro ADME; details: for microsomal CLint at 0.1 uM: both sexes, pH 7.4, human liver microsomes 0.1 mg/mL, 0.1 uM compound; for Microsomal Stability Human % rem. 60 min: human liver microsomes
Experimental: as §1

Row | IC50 [1] [µM] | hepatocyte CLint at 1 uM [2] [µL/min/1e6 cells] | Hepatocyte Stability Mouse % rem. 120 min [2] | microsomal CLint at 0.1 uM [3] [µL/min/mg] | Microsomal Stability Mouse % rem. 60 min [3] | microsomal CLint at 0.1 uM [4] [µL/min/mg] | Microsomal Stability Human % rem. 60 min [4] | SMILES
1 | < 0.1 | < 8.2 | G (% remaining = 50-75%) | < 116 | G (% remaining = 50-75%) | < 116 | G (% remaining = 50-75%) | CN(C)C(=O)Cn1ccc(C(=O)N[C@H]2CC[C@@H](Oc3nc(N4CCOCC4)cc4ncccc34)CC2)c1 [Compound 141, 1-(2-(dimethylamino)-2-oxoethyl)-N-((1s,4s)-4-((7-morpholino-1,6-naphthyridin-5-yl)oxy)cyclohexyl)-1H-pyrrole-3-carboxamide]
2 | 0.1 to 1 | < 8.2 | G (% remaining = 50-75%) | < 116 | F (% remaining = 25-50%) | – | – | c1cnc2cc(N3CCOCC3)nc(O[C@H]3CC[C@@H](Nc4ncc(OCCN5CCOCC5)cn4)CC3)c2c1 [Compound 68, N-((1s,4s)-4-((7-Morpholino-1,6-naphthyridin-5-yl)oxy)cyclohexyl)-5-(2-morpholinoethoxy)pyrimidin-2-amine]
3 | < 0.1 | < 8.2 | H (% remaining = 75-100%) | – | – | – | – | CN(C)C(=O)Cn1c(=O)n(C)c2nc(N[C@H]3CC[C@@H](Oc4nc(N5CCOCC5)cc5ncccc45)CC3)ncc21 [Compound 102, N,N-Dimethyl-2-(9-methyl-2-(((1s,4s)-4-((7-morpholino-1,6-naphthyridin-5-yl)oxy)cyclohexyl)amino)-8-oxo-8,9-dihydro-7H-purin-7-yl)acetamide]
4 | < 0.1 | < 8.2 | G (% remaining = 50-75%) | – | – | – | – | Cn1c(=O)n(C2CCOCC2)c2nc(N[C@H]3CC[C@@H](Oc4nc(N5CCOCC5)cc5ncccc45)CC3)ncc21 [Compound 96, 7-Methyl-2-(((1s,4s)-4-((7-morpholino-1,6-naphthyridin-5-yl)oxy)cyclohexyl)amino)-9-(tetrahydro-2H-pyran-4-yl)-7,9-dihydro-8H-purin-8-one]
5 | < 0.1 | > 8.2 | E (% remaining = 0-25%) | – | – | – | – | Cn1c(=O)[nH]c2cnc(N[C@H]3CC[C@@H](Oc4nc(N5CCOCC5)cc5ncccc45)CC3)nc21 [Compound 100, 9-Methyl-2-(((1s,4s)-4-((7-morpholino-1,6-naphthyridin-5-yl)oxy)cyclohexyl)amino)-7,9-dihydro-8H-purin-8-one]
6 | < 0.1 | < 8.2 | G (% remaining = 50-75%) | < 116 | G (% remaining = 50-75%) | > 116 | G (% remaining = 50-75%) | NCCOc1cnc(N[C@H]2CC[C@@H](Oc3nc(N4CCOCC4)cc4ncccc34)CC2)nc1 [Compound 65, 5-(2-Aminoethoxy)-N-((1s,4s)-4-((7-morpholino-1,6-naphthyridin-5-yl)oxy)cyclohexyl)pyrimidin-2-amine]
7 | < 0.1 | < 8.2 | G (% remaining = 50-75%) | – | – | – | – | CS(=O)(=O)c1cnc2cc(N3CCOCC3)nc(O[C@H]3CC[C@@H](NC(=O)c4ncco4)CC3)c2c1 [Compound 204c, N-((1s,4s)-4-((3-(methylsulfonyl)-7-morpholino-1,6-naphthyridin-5-yl)oxy)cyclohexyl)oxazole-2-carboxamide]
8 | < 0.1 | < 8.2 | G (% remaining = 50-75%) | – | – | – | – | O=C(Cn1c(=O)n(C2CCOCC2)c2nc(N[C@H]3CC[C@@H](Oc4nc(N5CCOCC5)cc5ncccc45)CC3)ncc21)N1CCOCC1 [Compound 98, 2-(((1s,4s)-4-((7-Morpholino-1,6-naphthyridin-5-yl)oxy)cyclohexyl)amino)-7-(2-morpholino-2-oxoethyl)-9-(tetrahydro-2H-pyran-4-yl)-7,9-dihydro-8H-purin-8-one]
9 | < 0.1 | < 8.2 | G (% remaining = 50-75%) | – | – | – | – | CS(=O)(=O)c1cnc2cc(N3CCOCC3)nc(O[C@H]3CC[C@@H](Nc4ncnc5ccoc45)CC3)c2c1 [Compound 204b, N-((1s,4s)-4-((3-(methylsulfonyl)-7-morpholino-1,6-naphthyridin-5-yl)oxy)cyclohexyl)furo[3,2-d]pyrimidin-4-amine]
10 | 1 to 10 | > 8.2 | F (% remaining = 25-50%) | < 116 | G (% remaining = 50-75%) | – | – | O=C(NO)c1cnc2cc(N3CCOCC3)nc(O[C@H]3CC[C@@H](n4ccnc4)CC3)c2c1 [Compound 172, 5-(((1s,4s)-4-(1H-imidazol-1-yl)cyclohexyl)oxy)-N-hydroxy-7-morpholino-1,6-naphthyridine-3-carboxamide]
11 | 0.1 to 1 | < 8.2 | H (% remaining = 75-100%) | – | – | – | – | O=S(=O)(CF)Nc1cnc2cc(N3CCOCC3)nc(O[C@H]3CC[C@@H](Nc4ncccn4)CC3)c2c1 [Compound 192, 1-fluoro-N-(7-morpholino-5-(((1s,4s)-4-(pyrimidin-2-ylamino)cyclohexyl)oxy)-1,6-naphthyridin-3-yl)methanesulfonamide]
12 | 0.1 to 1 | > 8.2 | F (% remaining = 25-50%) | – | – | – | – | O=S(=O)(CC(F)F)Nc1cnc2cc(N3CCOCC3)nc(O[C@H]3CC[C@@H](Nc4ncccn4)CC3)c2c1 [Compound 193, 2,2-difluoro-N-(7-morpholino-5-(((1s,4s)-4-(pyrimidin-2-ylamino)cyclohexyl)oxy)-1,6-naphthyridin-3-yl)ethane-1-sulfonamide]
13 | 0.1 to 1 | < 8.2 | G (% remaining = 50-75%) | – | – | – | – | CS(=O)(=O)c1cnc2cc(N3CCOCC3)nc(O[C@H]3CC[C@@H](Nc4ncccn4)CC3)c2c1 [Compound 200b, N-((1s,4s)-4-((3-(methylsulfonyl)-7-morpholino-1,6-naphthyridin-5-yl)oxy)cyclohexyl)pyrimidin-2-amine]
14 | 10 to 30 | < 8.2 | H (% remaining = 75-100%) | < 116 | H (% remaining = 75-100%) | – | – | O=C(O)c1cnc2cc(N3CCOCC3)nc(O[C@H]3CC[C@@H](n4ccnc4)CC3)c2c1 [Compound 165, 5-(((1s,4s)-4-(1H-imidazol-1-yl)cyclohexyl)oxy)-7-morpholino-1,6-naphthyridine-3-carboxylic acid]
15 | 10 to 30 | – | – | < 116 | H (% remaining = 75-100%) | – | – | CS(=O)(=O)NC(=O)c1cnc2cc(N3CCOCC3)nc(O[C@H]3CC[C@@H](n4ccnc4)CC3)c2c1 [Compound 175, 5-(((1s,4s)-4-(1H-imidazol-1-yl)cyclohexyl)oxy)-N-(methylsulfonyl)-7-morpholino-1,6-naphthyridine-3-carboxamide]
16 | 0.1 to 1 | < 8.2 | H (% remaining = 75-100%) | – | – | – | – | CS(=O)(=O)c1cnc2cc(N3CCOCC3)nc(O[C@H]3CC[C@@H](Nc4ncc(OCC(=O)N5CCOCC5)cn4)CC3)c2c1 [Compound 204a, 2-((2-(((1s,4s)-4-((3-(methylsulfonyl)-7-morpholino-1,6-naphthyridin-5-yl)oxy)cyclohexyl)amino)pyrimidin-5-yl)oxy)-1-morpholinoethan-1-one]
17 | < 0.1 | > 8.2 | F (% remaining = 25-50%) | – | – | – | – | Cn1c(=O)n(C)c2nc(N[C@H]3CC[C@@H](Oc4nc(N5CCOCC5)cc5ncccc45)CC3)ncc21 [Compound 101, 7,9-Dimethyl-2-(((1s,4s)-4-((7-morpholino-1,6-naphthyridin-5-yl)oxy)cyclohexyl)amino)-7,9-dihydro-8H-purin-8-one]
18 | < 0.1 | > 8.2 | F (% remaining = 25-50%) | – | – | – | – | O=c1[nH]c2cnc(N[C@H]3CC[C@@H](Oc4nc(N5CCOCC5)cc5ncccc45)CC3)nc2n1C1CCOCC1 [Compound 95, 2-(((1s,4s)-4-((7-Morpholino-1,6-naphthyridin-5-yl)oxy)cyclohexyl)amino)-9-(tetrahydro-2H-pyran-4-yl)-7,9-dihydro-8H-purin-8-one]
19 | < 0.1 | < 8.2 | G (% remaining = 50-75%) | – | – | – | – | O=C(Cn1c(=O)n(C2CCOCC2)c2nc(N[C@H]3CC[C@@H](Oc4nc(N5CCOCC5)cc5ncccc45)CC3)ncc21)N1CCC1 [Compound 99, 7-(2-(Azetidin-1-yl)-2-oxoethyl)-2-(((1s,4s)-4-((7-morpholino-1,6-naphthyridin-5-yl)oxy)cyclohexyl)amino)-9-(tetrahydro-2H-pyran-4-yl)-7,9-dihydro-8H-purin-8-one]

From US20240239790A1, “7-Morpholino-1,6-Naphthyridin-5-yl Derivatives and Pharmaceutical Compositions Thereof Useful as DNA-PK Inhibitor” (adMare Therapeutics Society, priority 2021, published 2024)
